# Results reported in patent US20140171357A1, “VANCOMYCIN DERIVATIVES” (Seachald Pharmaceuticals, Inc., priority 2011, published 2014).
# Tests used:
# [1] = tested on: B. anthracis Sterne 105; assay type: cell-based, Bacillus anthracis; conditions: Tween 80 0.002% medium, serum condition not stated
# [2] = tested on: VanA vancomycin-resistant E. faecium (10); assay: MIC broth microdilution, VanA E. faecium
# [3] = tested on: VanB vancomycin-resistant E. faecalis (12); assay: MIC broth microdilution, VanB E. faecalis
# [4] = tested on: VanA vancomycin-resistant E. faecalis (11); assay: MIC broth microdilution, VanA E. faecalis
# [5] = tested on: methicillin-resistant S. aureus (MRSA, 22); assay: MIC broth microdilution, MRSA
# [6] = tested on: vancomycin-susceptible E. faecium (21); assay: MIC broth microdilution, vancomycin-susceptible E. faecium
# [7] = tested on: VanB vancomycin-resistant E. faecium (10); assay: MIC broth microdilution, VanB E. faecium
# [8] = tested on: methicillin-susceptible S. aureus (MSSA, 22); assay: MIC broth microdilution, MSSA
# [9] = tested on: Staphylococcus aureus (65 strains); assay: MIC broth microdilution, S. aureus all isolates
# [10] = tested on: VanC enterococci (22); assay: MIC broth microdilution, vanC-carrying enterococci
# [11] = tested on: Staphylococcus epidermidis (43 strains); assay: MIC broth microdilution, S. epidermidis
# [12] = tested on: E. faecalis; assay: MIC broth microdilution, E. faecalis regardless of vancomycin susceptibility; conditions: Enterococcus faecalis
# [13] = tested on: vancomycin-susceptible E. faecalis (23); assay: MIC broth microdilution, vancomycin-susceptible E. faecalis
# [14] = tested on: S. aureus ATCC 25923; assay: Neutropenic murine thigh infection model; conditions: for AUCc-t (AUC difference between control and treated animals): 24 h time kill
# [15] = tested on: heterogeneous VISA (hVISA, 10); assay: MIC broth microdilution, hVISA
# [16] = tested on: vancomycin-intermediate S. aureus (VISA, 5); assay: MIC broth microdilution, VISA
# [17] = tested on: vancomycin-resistant S. aureus (VRSA, 6); assay: MIC broth microdilution, VRSA
# [18] = tested on: S. pneumoniae (22); assay: MIC broth microdilution, S. pneumoniae; conditions: S. pneumoniae (22); MHB + lysed horse blood
# [19] = tested on: β-hemolytic streptococci (23); assay: MIC broth microdilution, β-hemolytic streptococci; conditions: β-hemolytic streptococci (23); MHB + lysed horse blood
# [20] = 1 mg/kg single intraperitoneal dose
# [21] = 4 mg/kg single intraperitoneal dose
# [22] = 16 mg/kg single intraperitoneal dose
# [23] = E. faecium, vancomycin-susceptible (21)
# [24] = S. aureus (65), all resistance subsets
# [25] = E. faecalis, vancomycin-susceptible (23)
smiles,measurement,setting,value
CNC(CC(C)C)C(=O)NC1C(=O)NC(CC(N)=O)C(=O)NC2C(=O)NC3C(=O)NC(C(=O)NC(C(=O)NCCOCCOCCOCCN(C)C)c4cc(O)c(CNCCOCCOCCOCCN(C)C)c(O)c4-c4cc3ccc4O)C(O)c3ccc(c(Cl)c3)Oc3cc2cc(c3OC2OC(CO)C(O)C(O)C2OC2CC(C)(NCc3ccc(-c4ccc(Cl)cc4)cc3)C(O)C(C)O2)Oc2ccc(cc2Cl)C1O (stereo not shown) [Compound 23],MIC,[1],0.12 µg/mL
"CCCCCCCCCC(=O)N[C@@H](Cc1c[nH]c2ccccc12)C(=O)N[C@H](CC(N)=O)C(=O)N[C@@H](CC(=O)O)C(=O)N[C@@H]1C(=O)NCC(=O)N[C@@H](CCCN)C(=O)N[C@@H](CC(=O)O)C(=O)N[C@H](C)C(=O)N[C@@H](CC(=O)O)C(=O)NCC(=O)N[C@H](CO)C(=O)N[C@@H]([C@H](C)CC(=O)O)C(=O)N[C@@H](CC(=O)c2ccccc2N)C(=O)O[C@@H]1C [Daptomycin, reference compound]",MIC50,[2]; Enterococcus faecium,2 µg/mL
same,MIC90,[2]; Enterococcus faecium,2 µg/mL
same,MIC50,[3]; Enterococcus faecalis,0.5 µg/mL
same,MIC90,[3]; Enterococcus faecalis,1 µg/mL
same,MIC50,[4]; Enterococcus faecalis,1 µg/mL
same,MIC90,[4]; Enterococcus faecalis,2 µg/mL
same,MIC50,"[5]; Staphylococcus aureus, MRSA",0.25 µg/mL
same,MIC90,"[5]; Staphylococcus aureus, MRSA",0.5 µg/mL
same,MIC50,[6]; Enterococcus faecium,2 µg/mL
same,MIC90,[6]; Enterococcus faecium,2 µg/mL
same,MIC50,[7]; Enterococcus faecium,2 µg/mL
same,MIC90,[7]; Enterococcus faecium,2 µg/mL
same,MIC50,"[8]; Staphylococcus aureus, MSSA",0.25 µg/mL
same,MIC90,"[8]; Staphylococcus aureus, MSSA",0.5 µg/mL
same,MIC50,[9]; Staphylococcus aureus,0.25 µg/mL
same,MIC90,[9]; Staphylococcus aureus,1 µg/mL
same,MIC50,[10],1 µg/mL
same,MIC90,[10],2 µg/mL
same,MIC50,[11]; Staphylococcus epidermidis,0.25 µg/mL
same,MIC90,[11]; Staphylococcus epidermidis,0.5 µg/mL
same,MIC50,[12],0.5 to 1 µg/mL
same,MIC90,[12],1 to 2 µg/mL
same,MIC50,[13]; Enterococcus faecalis,1 µg/mL
same,MIC90,[13]; Enterococcus faecalis,2 µg/mL
CNC(CC(C)C)C(=O)NC1C(=O)NC(CC(N)=O)C(=O)NC2C(=O)NC3C(=O)NC(C(=O)NC(C(=O)O)c4cc(O)c(CNCCOCCOCC[N+](C)(C)C)c(O)c4-c4cc3ccc4O)C(O)c3ccc(c(Cl)c3)Oc3cc2cc(c3OC2OC(CO)C(O)C(O)C2OC2CC(C)(NCc3ccc(-c4ccc(Cl)cc4)cc3)C(O)C(C)O2)Oc2ccc(cc2Cl)C1O (stereo not shown) [Compound 13],MIC 50%,"[2]; E. faecium, VanA (10)",2 µg/mL
same,MIC 90%,"[2]; E. faecium, VanA (10)",4 µg/mL
same,MIC 50%,"[3]; E. faecalis, VanB (12)",0.25 µg/mL
same,MIC 90%,"[3]; E. faecalis, VanB (12)",0.5 µg/mL
same,Max Kill (maximum decrease from initial infection level),[14]; [20],0.9 Log10 CFU/thigh
same,AUCc-t (AUC difference between control and treated animals),[14]; [20],12.6 (Log10 CFU/thigh)/hr
same,Max Kill (maximum decrease from initial infection level),[14]; [21],0.28 Log10 CFU/thigh
same,AUCc-t (AUC difference between control and treated animals),[14]; [21],20.6 (Log10 CFU/thigh)/hr
same,Max Kill (maximum decrease from initial infection level),[14]; [22],0.02 Log10 CFU/thigh
same,AUCc-t (AUC difference between control and treated animals),[14]; [22],29.5 (Log10 CFU/thigh)/hr
same,MIC 50%,"[4]; E. faecalis, VanA (11)",8 µg/mL
same,MIC 90%,"[4]; E. faecalis, VanA (11)",16 µg/mL
same,MIC 50%,[5]; MRSA (22),0.12 µg/mL
same,MIC 90%,[5]; MRSA (22),0.12 µg/mL
same,MIC 50%,[15],0.12 µg/mL
same,MIC 90%,[15],0.12 µg/mL
same,MIC 50%,[6]; [23],0.12 µg/mL
same,MIC 90%,[6]; [23],0.12 µg/mL
same,MIC 50%,"[7]; E. faecium, VanB (10)",0.12 µg/mL
same,MIC 90%,"[7]; E. faecium, VanB (10)",0.12 µg/mL
same,MIC 50%,[16],0.5 µg/mL
same,MIC 50%,[8]; MSSA (22),0.12 µg/mL
same,MIC 90%,[8]; MSSA (22),0.25 µg/mL
same,MIC 50%,[9]; [24],0.12 µg/mL
same,MIC 90%,[9]; [24],0.5 µg/mL
same,MIC 50%,[10]; VanC enterococci (22),0.25 µg/mL
same,MIC 90%,[10]; VanC enterococci (22),1 µg/mL
same,MIC 50%,[17],8 µg/mL
same,MIC 50%,[11]; S. epidermidis (43),0.12 µg/mL
same,MIC 90%,[11]; S. epidermidis (43),0.12 µg/mL
same,MIC 50%,[18],0.06 µg/mL
same,MIC 90%,[18],0.12 µg/mL
same,MIC 50%,[13]; [25],0.25 µg/mL
same,MIC 90%,[13]; [25],0.25 µg/mL
same,MIC 50%,[19],0.06 µg/mL
same,MIC 90%,[19],0.06 µg/mL
